Key:
Assay in all cases: relative viability (nuclei count vs DMSO), 5 days (fraction); higher = more cells survive
BMX-IN-1 = compound: C=CC(=O)Nc1cc(-n2c(=O)ccc3cnc4ccc(-c5ccc(NS(C)(=O)=O)cc5)cc4c32)ccc1C [BMX-IN-1]
How it was run: (§1)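 Viability was read as treated-well nuclei divided by vehicle-well nuclei, using the median across plates. Lung cancer cell lines in 1536-well plates were kept overnight at 37 °C, pinned with five √10-spaced library-drug doses, and after 5 days were Hoechst-stained, imaged at 4× and counted in MetaXpress. Plates passed only with control CV below 25% and at least one doubling.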

PAC-1 = compound: C=CCc1cccc(/C=N/NC(=O)CN2CCN(Cc3ccccc3)CC2)c1O [PAC-1]
How it was run: as §1

BMX-IN-1 + Lapatinib = compound: C=CC(=O)Nc1cc(-n2c(=O)ccc3cnc4ccc(-c5ccc(NS(C)(=O)=O)cc5)cc4c32)ccc1C [BMX-IN-1] + CS(=O)(=O)CCNCc1ccc(-c2ccc3ncnc(Nc4ccc(OCc5cccc(F)c5)c(Cl)c4)c3c2)o1 [Lapatinib] (partner 2 µM)
How it was run: (§2)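 Five library-drug doses in √10 steps were combined with a fixed anchor-drug dose, or a single drug was given alone, by pin tool to lung cancer cell lines in 1536-well plates the day after seeding. Nuclei were stained and counted after 5 days. Relative viability is the nuclei count in treated wells over that in vehicle wells, taken as the median of duplicate plates.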

BMX-IN-1 + Bortezomib = compound: C=CC(=O)Nc1cc(-n2c(=O)ccc3cnc4ccc(-c5ccc(NS(C)(=O)=O)cc5)cc4c32)ccc1C [BMX-IN-1] + CC(C)C[C@H](NC(=O)[C@H](Cc1ccccc1)NC(=O)c1cnccn1)B(O)O [Bortezomib] (partner 0.002 µM)
How it was run: as §2

| Cell Line | relative viability (BMX-IN-1; 0.02 µM) | relative viability (BMX-IN-1; 0.2 µM) | relative viability (BMX-IN-1; 0.6325 µM) | relative viability (BMX-IN-1; 2 µM) | relative viability (PAC-1; 0.02 µM) | relative viability (PAC-1; 0.06325 µM) | relative viability (PAC-1; 0.2 µM) | relative viability (PAC-1; 2 µM) | relative viability (BMX-IN-1 + Lapatinib; first compound 0.02 µM) | relative viability (BMX-IN-1 + Lapatinib; first compound 0.2 µM) | relative viability (BMX-IN-1 + Lapatinib; first compound 0.6325 µM) | relative viability (BMX-IN-1 + Lapatinib; first compound 2 µM) | relative viability (BMX-IN-1 + Bortezomib; first compound 0.02 µM) | relative viability (BMX-IN-1 + Bortezomib; first compound 0.2 µM) | relative viability (BMX-IN-1 + Bortezomib; first compound 0.6325 µM) | relative viability (BMX-IN-1 + Bortezomib; first compound 2 µM) |
| --- | --- | --- | --- | --- | --- | --- | --- | --- | --- | --- | --- | --- | --- | --- | --- | --- |
| HCC-827 | 1.05 | 1.06 | 1.09 | 1.04 | 1.08 | 1.04 | 1.07 | 1.03 | 0.189 | 0.203 | 0.193 | 0.206 | 1.11 | 1.09 | 1.16 | 1.11 |
| HOP-62 | 1.1 | 1.08 | 1.08 | 1.06 | 1.05 | 1 | 0.996 | 1.07 | 1.05 | 1.16 | 0.955 | 1.04 | 0.934 | 0.851 | 0.769 | 0.6 |
| IA-LM | 1 | 0.997 | 1.04 | 1.02 | 1.09 | 1.05 | 0.89 | 1.03 | 0.925 | 0.902 | 0.994 | 0.867 | 0.884 | 0.928 | 0.984 | 0.884 |
| LC-2-ad | 1.1 | 1.05 | 1.08 | 1.02 | 1.01 | 1.04 | 1.01 | 0.974 | 1.12 | 1.12 | 1.09 | 1.05 | 1.02 | 1.28 | 1.01 | 1.04 |
| LCLC-97TM1 | 1.04 | 1.11 | 1.12 | 1.02 | 0.897 | 1.16 | 0.807 | 0.937 | 0.862 | 1.24 | 1.41 | 0.816 | 0.332 | 0.562 | 0.629 | 0.505 |
| LCLC-103H | 1.09 | 1.1 | 1.07 | 1.1 | 1 | 0.975 | 1.02 | 1.01 |  |  |  |  | 1.11 | 0.972 | 1.25 | 0.932 |
| LK-2 | 1.31 | 1.24 | 0.978 | 1.02 | 0.933 | 0.983 | 1 | 1.02 | 1.1 | 1.37 | 0.68 | 0.924 |  |  |  |  |
| LOU-NH91 |  | 0.973 | 1.08 | 0.989 | 0.891 | 0.959 | 0.917 | 0.972 |  | 0.792 | 0.819 | 0.819 |  | 0.512 | 0.459 | 0.49 |
| LU99A | 0.986 | 0.95 | 1.06 | 0.962 | 0.908 | 0.977 | 0.892 | 0.954 | 1.15 | 1.04 | 0.981 | 0.913 | 1.2 | 1.18 | 1.2 | 1.12 |
| LXF-289 | 1.06 | 1.05 | 1.01 | 1.02 | 0.974 | 1.01 | 0.997 | 1.01 | 0.982 | 1.01 | 0.957 | 0.983 | 1.09 | 1.16 | 1.11 | 1.05 |
| NCI-H23 | 0.963 | 1.1 | 1.16 | 1.09 | 0.845 | 1.03 | 0.921 | 1.13 | 1.04 | 1.24 | 1.01 | 1 | 1.23 | 1.46 | 1.18 | 1.06 |
| NCI-H322M | 1.07 | 0.905 | 0.967 | 0.943 | 0.833 | 0.897 | 1.05 | 0.884 | 0.626 | 0.591 | 0.563 | 0.578 | 1.33 | 1.25 | 1.2 | 1.36 |
| NCI-H358 | 1.12 | 0.962 | 1.04 | 0.914 | 0.921 | 0.848 | 0.905 | 0.789 | 0.48 | 0.431 | 0.4 | 0.412 |  |  |  |  |
| NCI-H441 | 1.19 | 1.31 | 1.28 | 1.17 | 1.03 | 1.09 | 0.997 | 1.04 |  |  |  |  | 0.483 | 0.517 | 0.483 | 0.27 |
| NCI-H460 | 1.24 | 1.09 | 1.04 | 1.07 | 0.979 | 0.966 | 0.934 | 1.07 |  | 1.36 | 1.75 | 1.1 | 1.94 |  | 1.29 | 1.03 |
| NCI-H520 | 1.26 | 1.02 | 1.1 | 1.04 | 0.964 | 0.957 | 0.899 | 0.99 | 1.04 | 0.903 | 1.05 | 0.838 | 0.604 | 0.741 | 0.863 | 0.465 |
| NCI-H522 | 0.882 | 0.906 | 1.04 | 0.938 | 1.08 | 1.1 | 0.872 | 1.05 |  |  |  |  |  |  |  |  |
| NCI-H1395 | 1.01 | 0.951 | 0.97 | 0.892 | 1.02 | 0.928 | 0.872 | 0.911 | 1.03 | 0.996 | 1.12 | 0.951 |  |  |  |  |
| NCI-H1623 | 0.995 | 1.01 | 0.988 | 0.882 | 0.966 | 0.891 | 0.95 | 0.926 |  |  |  |  |  |  |  |  |
| NCI-H1648 | 0.937 | 0.878 | 0.792 | 0.829 | 0.795 | 1.07 | 0.931 | 0.991 |  |  |  |  |  |  |  |  |
| NCI-H1793 | 1.13 | 0.995 | 1.13 | 1.05 | 0.847 | 0.934 | 0.872 | 1.01 | 0.755 | 1.22 | 0.72 | 0.872 |  |  |  |  |
| NCI-H1944 | 1.07 | 1.08 | 1.18 | 0.947 | 0.964 | 0.947 | 0.902 | 1.02 | 0.986 | 0.866 | 0.919 | 0.921 |  |  |  |  |
| NCI-H2170 | 1.14 | 1.05 | 1.05 | 1.02 | 1.02 | 0.978 | 0.99 | 0.962 | 0.281 | 0.28 | 0.272 | 0.271 |  |  |  |  |
| NCI-H2342 | 1.04 | 1.03 | 1.06 | 0.939 | 1.09 | 0.91 | 0.872 | 1.15 |  |  |  |  |  |  |  |  |
| SW 900 | 0.971 | 0.886 | 0.911 | 1.09 | 0.766 | 1.02 | 0.815 | 0.792 |  |  |  |  |  |  |  |  |

From the supplement of paper PMC10307832
